From patent US20240050576A1, “METHODS AND COMPOUNDS FOR THE TREATMENT OF GENETIC DISEASE” (Design Therapeutics, Inc., priority 2020, published 2024)

Test system: human FXN
Assay: FXN mRNA expression by qRT-PCR in GM15850 cells after 48 hr compound treatment
Assay type: cell-based
Settings: GM15850 cells, 48 hr incubation, hFXN normalized to hGAPDH; read-out: EC50 WT (nM, 48 hr)
Description: Cell culture: Cells were cultured in RPMI1640 medium+15% FBS. Cells were maintained at a density between 2e5/mL and 1e6/mL. Cells were centrifuged, resuspended in fresh medium, counted and plated at 150,000 cells per well in 100 uL in a non-coated, flat bottom tissue culture plate.
Compound treatment: 10 mM stock solution of FA GeneTAC was diluted 1:10 in DMSO followed by a 1:100 dilution in growth medium. […] Compound was then diluted at a 1:3 ratio into growth medium containing 0.01% DMSO. 5-point, 3-fold dose response curve was generated. 11 μL of 10× compound was added to wells containing 100 μL cell suspension of GM15850. 11 μL growth medium containing 0.01% DMSO was added to all wells not treated with FA GeneTAC. Cells were allowed to incubate for 48 hrs prior to cell lysis using guanidine isothiocyanate solution.
RNA isolation: Total RNA was isolated and purified in 384-well column filter plates using chaotropic salt.
qRT-PCR: qRT-PCR reactions were assembled using AgPath-ID reagents (Thermo Fisher) using 6 uL mastermix and 4 μL RNA. qRT-PCR TaqMan primer probe sets against human FXN (Assay ID Hs01075496_m1) and human GAPDH (Assay ID Hs00266705_g1) were used to measure the intended targets. qRT-PCR was run on the ThermoFisher QuantStudio 6 PRO instrument using the manufacturer's recommended cycling conditions.
Data analysis: qPCR data was analyzed using Thermo Fisher Design and Analysis software. Data was exported to Excel and hFXN expression was normalized to hGAPDH expression.

| Structure (SMILES) | EC50 [nM] |
| --- | --- |
| CC(=O)N1c2ccc(C3=CCN(C(=O)COCCOCCOCCOCCOCCC(=O)NCCCN(C)CCCNC(=O)CCNC(=O)c4nc(NC(=O)CCNC(=O)c5cc(NC(=O)c6nc(NC(=O)CCNC(=O)c7cc(NC(=O)c8nccn8C)cn7C)cn6C)cn5C)cn4C)CC3)cc2N(Cc2ccccc2CO)C[C@@H]1C1CC1 [Compound 29] | 100 to 500 |
| Cc1sc2c(c1C)C(c1ccc(Cl)cc1)=N[C@@H](CC(=O)Nc1ccc(OCCOCCOCCOCCOCCOCCC(=O)NCCCN(CCCNC(=O)CCNC(=O)c3nc(NC(=O)CCNC(=O)c4cc(NC(=O)c5nc(NC(=O)CCNC(=O)c6cc(NC(=O)c7nccn7C)cn6C)cn5C)cn4C)cn3C)CC(F)(F)F)cc1)c1nnc(C)n1-2 [Compound 38] | < 100 |

Same assay, conditions: Homo sapiens; GM15850 cells, 48 hr incubation, hFXN normalized to hGAPDH; read-out: EC50 WT (nM, 48 hr)

| Structure (SMILES) | EC50 [nM] |
| --- | --- |
| Cc1sc2c(c1C)C(c1ccc(Cl)cc1)=N[C@@H](CC(=O)Nc1ccc(OCCOCCOCCOCCOCCOCCC(=O)NCCCN(C)CCCNC(=O)CCNC(=O)c3nc(NC(=O)CCNC(=O)c4cc(NC(=O)c5nc(NC(=O)CCNC(=O)c6cc(NC(=O)c7nccn7C)cn6C)cn5C)cn4C)cn3C)cc1)c1nnc(C)n1-2 [Compound 3] | 100 to 500 |
| COc1ccc2c(c1)C(c1ccc(Cl)cc1)=N[C@@H](CC(=O)Nc1ccc(OCCOCCOCCOCCOCCOCCC(=O)NCCCN(C)CCCNC(=O)CCNC(=O)c3nc(NC(=O)CCNC(=O)c4cc(NC(=O)c5nc(NC(=O)CCNC(=O)c6cc(NC(=O)c7nccn7C)cn6C)cn5C)cn4C)cn3C)cc1)c1nnc(C)n1-2 [Compound 6] | 100 to 500 |
| Cc1noc(C)c1-c1cnc2c(-c3ccc(C(=O)NCCOCCOCCOCCOCCOCCC(=O)NCCCN(C)CCCNC(=O)CCNC(=O)c4nc(NC(=O)CCNC(=O)c5cc(NC(=O)c6nc(NC(=O)CCNC(=O)c7cc(NC(=O)c8nccn8C)cn7C)cn6C)cn5C)cn4C)cc3)cn([C@@H](C)c3ccccn3)c2c1 [Compound 8] | < 100 |
| Cc1cc(-c2nc3cnc(C4CCN(CCOCCOCCOCCOCCOCCC(=O)NCCCN(C)CCCNC(=O)CCNC(=O)c5nc(NC(=O)CCNC(=O)c6cc(NC(=O)c7nc(NC(=O)CCNC(=O)c8cc(NC(=O)c9nccn9C)cn8C)cn7C)cn6C)cn5C)CC4)cc3n2[C@@H](C)c2ccccc2)nn(C)c1=O [Compound 9] | 100 to 500 |
| COC[C@@H](C)n1c(C2CCN(CCOCCOCCOCCOCCOCCC(=O)NCCCN(C)CCCNC(=O)CCNC(=O)c3nc(NC(=O)CCNC(=O)c4cc(NC(=O)c5nc(NC(=O)CCNC(=O)c6cc(NC(=O)c7nccn7C)cn6C)cn5C)cn4C)cn3C)CC2)nc2cnc3cc(-c4c(C)noc4C)c(OC)cc3c21 [Compound 10] | 100 to 500 |
| COc1ccc2c(c1)C(c1ccc(Cl)cc1)=N[C@H](CC(=O)Nc1ccc(OCCOCCOCCOCCOCCOCCC(=O)NCCCN(C)CCCNC(=O)CCNC(=O)c3nc(NC(=O)CCNC(=O)c4cc(NC(=O)c5nc(NC(=O)CCNC(=O)c6cc(NC(=O)c7nccn7C)cn6C)cn5C)cn4C)cn3C)cc1)c1nnc(C)n1-2 [Compound 11] | > 500 |
| Cc1sc2c(c1C)C(c1ccc(Cl)cc1)=N[C@@H](CC(=O)Nc1ccc(OCCOCCOCCOCCOCCOCCOCCOCCOCCNC(=O)CCNC(=O)c3nc(NC(=O)CCNC(=O)c4cc(NC(=O)c5nc(NC(=O)CCNC(=O)c6cc(NC(=O)c7nccn7C)cn6C)cn5C)cn4C)cn3C)cc1)c1nnc(C)n1-2 [Compound 13] | < 100 |
| Cc1sc2c(c1C)C(c1ccc(Cl)cc1)=N[C@@H](CC(=O)Nc1ccc(OCCOCCOCCOCCOCCOCCC(=O)NCCCN(C)CCCNC(=O)c3cc(NC(=O)c4nc(NC(=O)CCNC(=O)c5cc(NC(=O)c6nc(NC(=O)CCNC(=O)c7cc(NC(=O)c8nccn8C)cn7C)cn6C)cn5C)cn4C)cn3C)cc1)c1nnc(C)n1-2 [Compound 16] | 100 to 500 |
| Cc1sc2c(c1C)C(c1ccc(Cl)cc1)=N[C@@H](CC(=O)Nc1ccc(OCCOCCOCCOCCOCCOCCOCCOCC(=O)NCCNC(=O)CCNC(=O)c3nc(NC(=O)CCNC(=O)c4cc(NC(=O)c5nc(NC(=O)CCNC(=O)c6cc(NC(=O)c7nccn7C)cn6C)cn5C)cn4C)cn3C)cc1)c1nnc(C)n1-2 [Compound 17] | < 100 |
| Cc1cc(-c2nc3cnc(C4CCN(C(=O)COCCOCCOCCOCCOCCC(=O)NCCCN(C)CCCNC(=O)CCNC(=O)c5nc(NC(=O)CCNC(=O)c6cc(NC(=O)c7nc(NC(=O)CCNC(=O)c8cc(NC(=O)c9nccn9C)cn8C)cn7C)cn6C)cn5C)CC4)cc3n2[C@@H](C)c2ccccc2)nn(C)c1=O [Compound 19] | < 100 |
| COC[C@@H](C)n1c(C2CCN(C(=O)COCCOCCOCCOCCOCCC(=O)NCCCN(C)CCCNC(=O)CCNC(=O)c3nc(NC(=O)CCNC(=O)c4cc(NC(=O)c5nc(NC(=O)CCNC(=O)c6cc(NC(=O)c7nccn7C)cn6C)cn5C)cn4C)cn3C)CC2)nc2cnc3cc(-c4c(C)noc4C)c(OC)cc3c21 [Compound 20] | 100 to 500 |
| Cc1sc2c(c1C)C(c1ccc(Cl)cc1)=N[C@@H](CC(=O)Nc1ccc(OCCOCCOCCOCCOCCOCCNC(=O)CCNC(=O)c3nc(NC(=O)CCNC(=O)c4cc(NC(=O)c5nc(NC(=O)CCNC(=O)c6cc(NC(=O)c7nccn7C)cn6C)cn5C)cn4C)cn3C)cc1)c1nnc(C)n1-2 [Compound 21] | 100 to 500 |
| Cc1sc2c(c1C)C(c1ccc(Cl)cc1)=N[C@@H](CC(=O)Nc1ccc(OCCOCCOCCOCCOCCOCCOCCNC(=O)CCNC(=O)c3nc(NC(=O)CCNC(=O)c4cc(NC(=O)c5nc(NC(=O)CCNC(=O)c6cc(NC(=O)c7nccn7C)cn6C)cn5C)cn4C)cn3C)cc1)c1nnc(C)n1-2 [Compound 22] | 100 to 500 |
| Cc1sc2c(c1C)C(c1ccc(Cl)cc1)=N[C@@H](CC(=O)Nc1ccc(OCCOCCOCCOCCOCCOCCOCCOCCNC(=O)CCNC(=O)c3nc(NC(=O)CCNC(=O)c4cc(NC(=O)c5nc(NC(=O)CCNC(=O)c6cc(NC(=O)c7nccn7C)cn6C)cn5C)cn4C)cn3C)cc1)c1nnc(C)n1-2 [Compound 23] | 100 to 500 |
| Cc1sc2c(c1C)C(c1ccc(Cl)cc1)=N[C@@H](CC(=O)Nc1ccc(OCCOCCOCCOCCOCCOCCOCCOCCOCCOCCNC(=O)CCNC(=O)c3nc(NC(=O)CCNC(=O)c4cc(NC(=O)c5nc(NC(=O)CCNC(=O)c6cc(NC(=O)c7nccn7C)cn6C)cn5C)cn4C)cn3C)cc1)c1nnc(C)n1-2 [Compound 24] | < 100 |
| COc1ccc2c(c1)C(c1ccc(Cl)cc1)=N[C@@H](CC(=O)Nc1ccc(OCCOCCOCCOCCOCCOCCOCCOCCOCCNC(=O)CCNC(=O)c3nc(NC(=O)CCNC(=O)c4cc(NC(=O)c5nc(NC(=O)CCNC(=O)c6cc(NC(=O)c7nccn7C)cn6C)cn5C)cn4C)cn3C)cc1)c1nnc(C)n1-2 [Compound 25] | 100 to 500 |
| COc1ccc2c(c1)C(c1ccc(Cl)cc1)=N[C@H](CC(=O)Nc1ccc(OCCOCCOCCOCCOCCOCCOCCOCCOCCNC(=O)CCNC(=O)c3nc(NC(=O)CCNC(=O)c4cc(NC(=O)c5nc(NC(=O)CCNC(=O)c6cc(NC(=O)c7nccn7C)cn6C)cn5C)cn4C)cn3C)cc1)c1nnc(C)n1-2 [Compound 26] | 100 to 500 |
| CC(=O)N1c2ccc(-c3cnc(C(=O)NCCOCCOCCOCCOCCOCCC(=O)NCCCN(C)CCCNC(=O)CCNC(=O)c4nc(NC(=O)CCNC(=O)c5cc(NC(=O)c6nc(NC(=O)CCNC(=O)c7cc(NC(=O)c8nccn8C)cn7C)cn6C)cn5C)cn4C)nc3)cc2N(Cc2ccccc2CO)C[C@@H]1C1CC1 [Compound 30] | > 500 |
| CC(=O)N1c2ccc(-c3ccc(C(=O)NCCOCCOCCOCCOCCOCCC(=O)NCCCN(C)CCCNC(=O)CCNC(=O)c4nc(NC(=O)CCNC(=O)c5cc(NC(=O)c6nc(NC(=O)CCNC(=O)c7cc(NC(=O)c8nccn8C)cn7C)cn6C)cn5C)cn4C)cc3)cc2[C@H](Nc2ccc(Cl)cc2)C[C@@H]1C [Compound 31] | < 100 |
| Cc1sc2c(c1C)C(c1ccc(Cl)cc1)=N[C@@H](CC(=O)Nc1ccc(OCCOCCOCCOCCOCCOCCOCCOCCOCCNC(=O)CCNC(=O)c3cc(NC(=O)c4nc(NC(=O)CCNC(=O)c5cc(NC(=O)c6nc(NC(=O)CCNC(=O)c7cc(NC(=O)c8nccn8C)cn7C)cn6C)cn5C)cn4C)cn3C)cc1)c1nnc(C)n1-2 [Compound 33] | 100 to 500 |
| CC(=O)N1c2ccc(-c3ccc(C(=O)NCCOCCOCCOCCOCCOCCOCCOCCNC(=O)CCNC(=O)c4nc(NC(=O)CCNC(=O)c5cc(NC(=O)c6nc(NC(=O)CCNC(=O)c7cc(NC(=O)c8nccn8C)cn7C)cn6C)cn5C)cn4C)cc3)cc2[C@H](Nc2ccc(Cl)cc2)C[C@@H]1C [Compound 35, N-(5-((3-((2-((1-(4-((2S,4R)-1-acetyl-4-((4-chlorophenyl)amino)-2-methyl-1,2,3,4-tetrahydroquinolin-6-yl)phenyl)-1,27-dioxo-5,8,11,14,17,20,23-heptaoxa-2,26-diazanonacosan-29-yl)carbamoyl)-1-methyl-1H-imidazol-4-yl)amino)-3-oxopropyl)carbamoyl)-1-methyl-1H-pyrrol-3-yl)-1-methyl-4-(3-(1-methyl-4-(1-methyl-1H-imidazole-2-carboxamido)-1H-pyrrole-2-carboxamido)propanamido)-1H-imidazole-2-carboxamide] | < 100 |
| CC(=O)N1c2ccc(-c3ccc(C(=O)NCCOCCOCCOCCOCCOCCOCCOCCOCCNC(=O)CCNC(=O)c4nc(NC(=O)CCNC(=O)c5cc(NC(=O)c6nc(NC(=O)CCNC(=O)c7cc(NC(=O)c8nccn8C)cn7C)cn6C)cn5C)cn4C)cc3)cc2[C@H](Nc2ccc(Cl)cc2)C[C@@H]1C [Compound 36] | < 100 |
